Legend:
Format in all cases: cell-based
P2X7 receptor [1] = target: T1, P2X7 receptor (Homo sapiens, UniProt Q99572); test: Screen Quest Fluo-8 No Wash Calcium Assay (Bz-ATP evoked Ca2+ influx, FLIPR); design: hP2X7 (IC50; nM); other: hP2X7; HEK-293 cells stably transfected with P2X7 receptor, Bz-ATP at EC80, Fluo-8 NW; potency; conditions: hP2X7; HEK-293 cells stably transfected with P2X7 receptor, Bz-ATP at EC80, Fluo-8 NW; potency ranges A-D
T1 sequence (Q99572 1-595): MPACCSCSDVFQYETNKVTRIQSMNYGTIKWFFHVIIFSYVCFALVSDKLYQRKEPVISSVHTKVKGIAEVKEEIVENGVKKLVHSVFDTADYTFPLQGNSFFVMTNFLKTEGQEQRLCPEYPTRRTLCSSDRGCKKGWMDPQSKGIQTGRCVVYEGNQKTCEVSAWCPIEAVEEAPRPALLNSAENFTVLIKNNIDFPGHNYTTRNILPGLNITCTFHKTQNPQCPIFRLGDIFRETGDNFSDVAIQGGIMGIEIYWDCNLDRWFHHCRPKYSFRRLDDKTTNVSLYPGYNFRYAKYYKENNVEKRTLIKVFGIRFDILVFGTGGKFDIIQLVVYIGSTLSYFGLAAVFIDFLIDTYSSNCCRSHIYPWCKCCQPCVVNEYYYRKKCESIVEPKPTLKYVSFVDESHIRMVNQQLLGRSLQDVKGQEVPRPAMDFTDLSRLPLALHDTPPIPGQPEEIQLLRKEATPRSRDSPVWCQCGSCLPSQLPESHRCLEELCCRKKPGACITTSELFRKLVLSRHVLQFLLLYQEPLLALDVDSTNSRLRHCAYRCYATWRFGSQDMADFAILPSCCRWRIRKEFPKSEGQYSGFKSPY
Outline: (§1)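 Compounds were added to Fluo-8-loaded P2X7-transfected HEK-293 cells 5 min before an EC80 Bz-ATP challenge, and Ca2+ influx was then recorded for 3 min. Buffer held 0.3 mM Ca2+ and no Mg2+. Inhibition was normalised to A438079, giving IC50 values.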

P2X7 receptor [2] = target: T2, P2X7 receptor (Mus musculus, UniProt Q9Z1M0); test: as above; conditions: mP2X7; HEK-293 cells stably transfected with P2X7 receptor, Bz-ATP at EC80, Fluo-8 NW; potency ranges A-D
T2 construct: mP2X7 (IC50; nM); other: mP2X7; HEK-293 cells stably transfected with P2X7 receptor, Bz-ATP at EC80, Fluo-8 NW; potency
T2 sequence (Q9Z1M0 1-595): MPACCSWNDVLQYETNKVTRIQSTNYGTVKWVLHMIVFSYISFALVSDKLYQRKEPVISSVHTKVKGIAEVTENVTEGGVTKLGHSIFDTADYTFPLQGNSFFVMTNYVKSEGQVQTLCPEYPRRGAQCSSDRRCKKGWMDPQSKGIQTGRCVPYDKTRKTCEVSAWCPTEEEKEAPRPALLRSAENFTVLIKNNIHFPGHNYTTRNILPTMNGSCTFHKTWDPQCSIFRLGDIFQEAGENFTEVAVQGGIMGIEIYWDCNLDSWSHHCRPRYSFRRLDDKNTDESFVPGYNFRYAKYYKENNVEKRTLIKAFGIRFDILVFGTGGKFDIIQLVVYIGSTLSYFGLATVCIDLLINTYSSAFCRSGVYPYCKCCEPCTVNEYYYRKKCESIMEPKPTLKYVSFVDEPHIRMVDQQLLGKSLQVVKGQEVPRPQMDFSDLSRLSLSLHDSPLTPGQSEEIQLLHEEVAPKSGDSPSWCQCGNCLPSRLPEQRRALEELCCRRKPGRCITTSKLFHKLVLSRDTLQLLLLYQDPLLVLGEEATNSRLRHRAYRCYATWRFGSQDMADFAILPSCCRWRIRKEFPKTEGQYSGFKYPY
Outline: as §1

P2X7 receptor [3] = target: T1, P2X7 receptor; test: Automated patch-clamp (QPatch16X) P2X7 channel assay; design: expressed in transfected cells; host or cells: HEK-293; conditions: HEK-293 cells expressing P2X7 channels; whole-cell, held at -80 mV; 100 microM BzATP; compound 1, 10, 100 and 1000 nM; read-out: Q-Patch (IC50)
Outline: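 Whole-cell patch clamp was run at room temperature on HEK-293 cells expressing P2X7, held at −80 mV with CsF internal and pH 7.4 NaCl external solutions. Currents were evoked by 100 µM BzATP alone and then with compound at 1, 10, 100 and 1000 nM. Peak inward currents were normalized and fitted to a Hill equation to give IC50.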

IC50 (P2X7 receptor [1]): 200 to 1000 nM | IC50 (P2X7 receptor [2]): 1000 to 10000 nM | IC50 (P2X7 receptor [3]): 1.5 µM
Compound: O=c1onc(Cc2c(F)cccc2Cl)n1Cc1ccc(C(F)(F)F)o1 [Example 66, 3-[(2-chloro-6-fluorophenyl)methyl]-4-{[5-(trifluoromethyl)furan-2-yl]methyl}-4,5-dihydro-1,2,4-oxadiazol-5-one]
